The experiment deals with P388 leukemia ip, CD2F1 mice, survival T/C. The experiment is described as follows: NCI In Vivo Anticancer Drug Screen. Data for tumor model P388 Leukemia (intraperitoneal) in CD2F1 (CDF1) mice. Conditions: endpoint: median survival time, higher = longer survival. Summed up:
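Mice carrying the transplanted tumor received test compound or vehicle. Survival was recorded in each group, and the value is the treated-group measurement divided by that of the vehicle-treated control group.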

Setting [1] is: dose: 50.0 mg/kg/injection, schedule: Q01DX005 (ip), vehicle: Klucel (hydroxypropylcellulose) (HPC).
Setting [2] is: dose: 100.0 mg/kg/injection, schedule: Q01DX005 (ip), vehicle: Klucel (hydroxypropylcellulose) (HPC).
Setting [3] is: dose: 50.0 mg/kg/injection, schedule: Q01DX009 (ip), vehicle: saline with Tween-80.
Setting [4] is: dose: 100.0 mg/kg/injection, schedule: Q01DX009 (ip), vehicle: saline with Tween-80.
Setting [5] is: dose: 200.0 mg/kg/injection, schedule: Q01DX009 (ip), vehicle: saline with Tween-80.
The mark [6] stands for this setting: dose: 50.0 mg/kg/injection, schedule: Q04DX003 (ip), vehicle: saline.
Where [7] appears, read: dose: 100.0 mg/kg/injection, schedule: Q04DX003 (ip), vehicle: saline.
Where [8] appears, read: dose: 50.0 mg/kg/injection, schedule: Q01DX009 (ip), vehicle: saline.
Where [9] appears, read: dose: 100.0 mg/kg/injection, schedule: Q01DX009 (ip), vehicle: saline.
[10] abbreviates: dose: 200.0 mg/kg/injection, schedule: Q01DX009 (ip), vehicle: saline.
[11] abbreviates: dose: 50.0 mg/kg/injection, schedule: Q01DX009 (ip), vehicle: Klucel (hydroxypropylcellulose) (HPC).
[12] abbreviates: dose: 100.0 mg/kg/injection, schedule: Q01DX009 (ip), vehicle: Klucel (hydroxypropylcellulose) (HPC).
Where [13] appears, read: dose: 200.0 mg/kg/injection, schedule: Q01DX009 (ip), vehicle: Klucel (hydroxypropylcellulose) (HPC).

The structures appear in SMILES notation. “And” between values parts separate entries of the source, which are not always exact repeats. Equal entries are not always repeated. Toxic doses and inconclusive results are not listed.

Consider `Cc1nc(N)nc(N)c1N1CCN(c2ccc(C(=O)NC(CCC(=O)O)C(=O)O)cc2)CC1` (stereo not drawn), for which the T/C runs as follows: (dose: 1.56 mg/kg/injection, schedule: Q01DX005 (ip), vehicle: water) 111 % of control; (dose: 12.5 mg/kg/injection, schedule: Q01DX005 (ip), vehicle: distilled water + Tween-80) 168 % of control; (dose: 12.5 mg/kg/injection, schedule: Q01DX005 (ip), vehicle: water) 150 % of control; (dose: 25.0 mg/kg/injection, schedule: Q01DX005 (ip), vehicle: distilled water + Tween-80) 176 % of control; (dose: 25.0 mg/kg/injection, schedule: Q01DX005 (ip), vehicle: water) 176 % of control; (dose: 50.0 mg/kg/injection, schedule: Q01DX005 (ip), vehicle: water) 222 % of control. Further, the T/C (dose: 100.0 mg/kg/injection, schedule: Q01DX005 (ip), vehicle: distilled water + Tween-80) is 87 % of control.
As for `[Cl][Co][Cl].c1ccc2[nH]cnc2c1.c1ccc2[nH]cnc2c1`, the T/C runs as follows: under setting [1], 111 % of control; under setting [2], 111 % of control.
`CCCN1CN2C(C)C(c3ccccc3)OC2C(C)(C)C1` (stereo not drawn): the T/C runs as follows: under setting [3], 112 % of control; under setting [4], 112 % of control; under setting [5], 117 % of control.
For `CC[N](CC)[Ge]([CH2]C)[CH2]C.CC[N](CC)[Ge]([CH2]C)[CH2]C`, the T/C by setting is: (dose: 6.25 mg/kg/injection, schedule: Q01DX009 (ip), vehicle: saline) 106 % of control; (dose: 12.5 mg/kg/injection, schedule: Q01DX009 (ip), vehicle: saline) 109 % of control; under setting [6], 116 % of control; under setting [7], 114 % of control.
Regarding `CCOC(=O)CC(=O)C(OC)OC`, the T/C was 106 % of control under setting [8]; 105 % of control under setting [9]; 102 % of control under setting [10]; 98 % of control (dose: 400.0 mg/kg/injection, schedule: Q01DX009 (ip), vehicle: saline).
For the compound `C[C@]12CCC(=O)C(O)=C1CC[C@H]1[C@@H]3CCC(=O)[C@@]3(C)CC[C@@]12O`, the T/C is 101 % of control (dose: 12.5 mg/kg/injection, schedule: Q01DX005 (ip), vehicle: Klucel (hydroxypropylcellulose) (HPC)); 109 % of control (dose: 25.0 mg/kg/injection, schedule: Q01DX005 (ip), vehicle: Klucel (hydroxypropylcellulose) (HPC)); 104 % of control under setting [1]; 104 % of control under setting [2]; 96 % of control (dose: 200.0 mg/kg/injection, schedule: Q01DX005 (ip), vehicle: Klucel (hydroxypropylcellulose) (HPC)).
As to `CCC1=C[C@@H]2C[C@](C(=O)OC)(c3cc4c(cc3OC)N(C)[C@H]3[C@@](O)(C(=O)NC)[C@H](OC(C)=O)[C@]5(CC)C=CCN6CC[C@]43[C@@H]65)c3[nH]c4ccccc4c3CCN(C1)[C@@H]2O`, the T/C was 123 % of control (dose: 0.39 mg/kg/injection, schedule: Q01DX001 (ip), vehicle: water); 151 % of control (dose: 1.56 mg/kg/injection, schedule: Q01DX001 (ip), vehicle: water); 152 % of control and 158 % of control (dose: 3.13 mg/kg/injection, schedule: Q01DX001 (ip), vehicle: water).
In the case of `O=c1oc2c(O)c(O)cc3c(=O)oc4c(O)c(O)cc1c4c23`, the T/C (dose: 50.0 mg/kg/injection, schedule: Q01DX009 (ip), vehicle: other) was 121 % of control; the T/C under setting [6] is 100 % of control; the T/C (dose: 100.0 mg/kg/injection, schedule: Q01DX009 (ip), vehicle: other) was 123 % of control; the T/C under setting [7] was 103 % of control; the T/C (dose: 200.0 mg/kg/injection, schedule: Q01DX009 (ip), vehicle: other) was 117 % of control and 123 % of control; the T/C (dose: 200.0 mg/kg/injection, schedule: Q04DX003 (ip), vehicle: saline) is 112 % of control. Besides, the T/C (dose: 400.0 mg/kg/injection, schedule: Q01DX009 (ip), vehicle: other) is 102 % of control and 108 % of control.
For `CC1CC(C)(C)OB(OCCc2ccc(Cl)cc2Cl)O1` (stereo not drawn), the T/C was 99 % of control under setting [8], 102 % of control under setting [9] and 100 % of control under setting [10].
For `CC[Si](C=C1CCCCC1)(CC)CC`, the T/C by setting is: under setting [11], 101 % of control; under setting [12], 110 % of control; under setting [13], 109 % of control.
Regarding `COc1ccc(C(=O)c2cccnc2C(=O)O)cc1`, the T/C runs as follows: under setting [3], 105 % of control; under setting [4], 107 % of control; under setting [5], 107 % of control.
Consider `COc1nc2[nH]ccc2c(=O)[nH]1`, for which the T/C (dose: 60.0 mg/kg/injection, schedule: Q01DX005 (ip), vehicle: saline with Tween-80) is 94 % of control; the T/C (dose: 120.0 mg/kg/injection, schedule: Q01DX005 (ip), vehicle: saline with Tween-80) is 86 % of control; the T/C (dose: 240.0 mg/kg/injection, schedule: Q01DX005 (ip), vehicle: saline with Tween-80) is 96 % of control.
Take `COc1cc(N2C(=O)CSC2=S)cc(OC)c1OC`: the T/C under setting [11] is 100 % of control, the T/C under setting [12] is 89 % of control and the T/C under setting [13] was 101 % of control.
In the case of `COc1cc2c(OC)c(c1)CCC1=CC(=O)C(=CC1=O)CC2`, the T/C (dose: 100.0 mg/kg/injection, schedule: Q01DX001 (ip), vehicle: Klucel (hydroxypropylcellulose) (HPC)) is 99 % of control and the T/C (dose: 200.0 mg/kg/injection, schedule: Q01DX001 (ip), vehicle: Klucel (hydroxypropylcellulose) (HPC)) was 96 % of control.
Take `O=C(O)CSC(c1ccccc1)(c1ccc(-c2ccccc2)cc1)c1cccc2ccccc12` (stereo not drawn): the T/C runs as follows: (dose: 50.0 mg/kg/injection, schedule: Q01DX005 (ip), vehicle: saline with Tween-80) 95 % of control; (dose: 100.0 mg/kg/injection, schedule: Q01DX005 (ip), vehicle: saline with Tween-80) 109 % of control; (dose: 200.0 mg/kg/injection, schedule: Q01DX005 (ip), vehicle: saline with Tween-80) 109 % of control.
As for `CC(/C=C/c1ccccc1)=N\Nc1ccc(Cl)cc1Cl`, the T/C is, setting by setting: under setting [11], 118 % of control; under setting [12], 100 % of control.
Consider `Nc1ncnc2c1ccn2CC(O)CO` (stereo not drawn), for which the T/C was 101 % of control (dose: 50.0 mg/kg/injection, schedule: Q01DX005 (ip), vehicle: distilled water + alcohol); 100 % of control (dose: 100.0 mg/kg/injection, schedule: Q01DX005 (ip), vehicle: distilled water + alcohol); 101 % of control (dose: 200.0 mg/kg/injection, schedule: Q01DX005 (ip), vehicle: distilled water + alcohol).
With `O=C1N(Cl)C(=O)C(c2ccc(Cl)cc2)(c2ccc(Cl)cc2)N1Cl`, the T/C reads like this: (dose: 12.5 mg/kg/injection, schedule: Q01DX009 (ip), vehicle: saline with Tween-80) 118 % of control; under setting [3], 150 % of control.
As for `O=C1CC(c2ccccc2)C(c2ccccc2)C1` (stereo not drawn), the T/C was 94 % of control under setting [11], 97 % of control under setting [12] and 93 % of control under setting [13].
Turning to `CCOP(=O)(CC(=O)O)OCC`, the T/C was 100 % of control under setting [8], 102 % of control under setting [9] and 93 % of control under setting [10].
As to `COc1ccc(C(=O)C(C)Sc2ccccc2)cc1OC` (stereo not drawn), the T/C by setting is: (dose: 10.0 mg/kg/injection, schedule: Q01DX005 (ip), vehicle: Klucel (hydroxypropylcellulose) (HPC)) 108 % of control; (dose: 20.0 mg/kg/injection, schedule: Q01DX005 (ip), vehicle: Klucel (hydroxypropylcellulose) (HPC)) 105 % of control; (dose: 40.0 mg/kg/injection, schedule: Q01DX005 (ip), vehicle: Klucel (hydroxypropylcellulose) (HPC)) 101 % of control.
Turning to `O=[N+]([O-])OI(c1ccccc1)c1ccccc1`, the T/C is, setting by setting: (dose: 1.56 mg/kg/injection, schedule: Q01DX009 (ip), vehicle: saline) 100 % of control and 101 % of control (2×); (dose: 3.12 mg/kg/injection, schedule: Q01DX009 (ip), vehicle: saline) 101 % of control and 104 % of control.

The values are drawn from PubChem BioAssay AID330 (DTP/NCI, 2004).
